Data reported in patent US20150175585A1, “FUSED QUINONIC COMPOUNDS” (CENTRO ATLANTICO DEL MEDICAMENTO S.A (CEAMED, S.A.), priority 2012, published 2015).

Test system: STAT3
Assay: IL-6 induced STAT3 phosphorylation in T47D cells (Western immunoblotting)
Assay type: cell-based, human
Conditions: serum deprived T47D cells; 5 μM for 0.5-3 h or 0.5-10 μM; IL-6 25 ng/ml 30 min
Procedure: FIG. 2. • Overnight serum deprived T47D cells were stimulated with IL-6 (25 ng/ml) for 3, 5, 10, 20, 30, 45 and 60 min. JAK2, pYJAK2, STAT3 and pYSTAT3 were detected using Western immunoblotting as described in methods. B) Overnight serum derived T47D cells were pre-incubated with compound 4 (C4) (5 μM) for 0.5, 1, 2, and 3 h and stimulated with 25 ng/ml for 30 min. JAK2, pYJAK2, STAT3 and pYSTAT3 were detected using Western immunoblotting as described in methods. C) Overnight serum derived T47D cells were preincubated with C4 at increasing concentrations (0.5-10 μM) for 3 h and stimulated with 25 ng/ml IL-6 for 30 min. JAK2, pJAK2, STAT5 and pSTAT5 were detected using Western immunoblotting as described above. Equal protein loading was confirmed using a specific human anti-β-actin antibody. C—Veh: T47D cells exposed to C4 and IL-6 vehicle (0.1% DMSO and PBS, respectively) for the indicated times. C+: T47D cells exposed to C4 vehicle (0.1% DMSO) and stimulated with IL-6 (25 ng/ml) for the indicated time.
T47D cells were routinely maintained in 75-cm^2 culture flasks with vented caps at 37° C., 5% CO2 in RPMI 1640 growth media without phenol red supplemented with 10% FBS, 2 mM L-glutamine, 10 mM HEPES, 50 U/ml penicillin/50 U/ml streptomycin, and 0.3 mg/ml gentamicin. […]

## N#Cc1ccc(C2C3=C(CCCC3=O)OC3=C2C(=O)c2ccccc2C3=O)cc1 (stereo not shown) [Compound 4, 4-(1,6,11-trioxo-2,3,4,6,11,12-hexahydro-1H-benzo[b]xanthen-12-yl)benzonitrile]
  IL-6-induced STAT3 phosphorylation: inhibits, in a time/dose dependent manner
